This is an account of results in PMC11842024, “Reversible male contraception by targeted inhibition of serine/threonine kinase 33” (Science (New York, N.Y.), 2024).

Structures are written as SMILES. Read-outs that look alike come from different tables or passages of the source.

Data set [1] can be described thus: Metabolic stability assay in liver microsomes (MLM). The format is in vitro ADME, mouse. As to conditions: for half-life at 2 µM: mouse, liver microsomes. Here is the method:
Metabolic stability assay in liver microsomes. The stabilities of CDD-2110, CDD-2211, CDD-2212, CDD-2807, and CDD-3348 in liver microsomes with/without Uridine Diphosphate Glucuronic Acid (UDP-GA, a cofactor of UDP-glucuronosyltransferases) were performed and half-life was calculated as previously reported (36). Briefly, each CDD compound (2.0 μM) was incubated in the mouse or human liver microsomes (0.5 mg protein/mL) at 37°C in 1× PBS fortified with NADPH (1.0 mM) and with/without UDP-GA (2.5 mM). Alamethicin (25 µg/mL) as a pore forming agent was used for the glucuronidation (Table S2A). The samples were collected at specific time-points 0, 30, and 60 min in duplicate. The reactions were terminated by adding equivalent volume of ice-cold methanol (CH3OH) and vortexed. After centrifugation at 15000 g for 10 min, 3.0 μL of the supernatant was analyzed by Thermo TSQ Quantis MS coupled with a Thermo Vanquish UHPLC (San Jose, CA) equipped with a Luna C18 column (1 mm × 50 mm, 1.6 µm, Phenomenex, Torrance, CA). The column temperature was maintained at 40°C. CDD-2807 was monitored under the selected reaction monitoring (SRM) mode coupled with a positive electrospray ionization (ESI) source. The SRM ion pairs were 447→321 for CDD-2807.
On the technique in general: Liver microsomes are vesicles of endoplasmic reticulum, rich in cytochrome P450 enzymes.

Data set [2] in a line: CDD-2807 concentrations in mouse brain, liver, lung, and testis. The format is in vivo, mice. On the procedure: Pharmacokinetics (PK) of CDD-2807 in mice. The pharmacokinetic studies (72) of CDD-2807 were performed at three doses via intraperitoneal (i.p.) injection and oral (p.o.) administration.
CDD-2807 was dissolved in 10% Captisol containing 5% DMSO to prepare the solutions of 0.5 mg/mL, 2.5 mg/mL and 5.0 mg/mL. Twelve male mice (strain: C57BL/6NJ, 8−12 weeks) were divided equally and randomly into 4 groups (n = 3 for each dose). One group of mice were administered 5 mg/kg CDD-2807 (i.p., 10 µL/g of 0.5 mg/mL solution), the second group 25 mg/kg CDD-2807 (i.p., 10 µL/g of 2.5 mg/mL solution), the third group 5 mg/kg CDD-2807 (p.o., 10 µL/g of 0.5 mg/mL solution), and the fourth group 50 mg/kg CDD-2807 (p.o., 10 µL/g of 5.0 mg/mL solution). At 0, 5, 10, 15, 30 min, 1, 2, 4, 6, 8, 24 h post-dose, around 20 µL of blood was collected from the tail vein and anti-coagulated by heparin. The blood samples were centrifuged at 2000 g for 3 min at 4°C, and the plasma samples were transferred to tubes and stored at −80°C before analysis. All the samples were analyzed by the Thermo TSQ Quantis MS coupled with a Thermo Vanquish UHPLC (San Jose, CA). CDD-2807 was separated on a Luna C18 column (1 mm × 50 mm, 1.6 µm, Phenomenex, Torrance, CA), and eluted by a water-acetonitrile mobile phase system (both containing 0.1% formic acid, v/v) at the flow rate of 0.15 mL/min. CDD-2807 was monitored under the SRM mode coupled with a positive ESI source. The SRM ion pairs were 447→321 for CDD-2807. The ion spray voltage was set at 3500 V. High-purity nitrogen was used as the sheath gas (35 arbitrary unit), auxiliary gas (7 arbitrary unit), and high-purity argon was used as the collision gas. The temperatures of the ion transfer tube and the vaporizer were set at 300°C and 275°C, respectively. The concentration of CDD-2807 in plasma was quantified using individual calibration curves. The calibration curve was regressed with a weight of 1/x2 with high linearity (r2 >0.99). PK parameters, including half-time (t1/2), area under the plasma concentration– time curve from zero to infinity (AUC0–∞), clearance normalized by the bioavailability (CL/F), volume of distribution normalized by the bioavailability (Vd/F), and the mean residence time (MRT), were calculated by WinNonlin software (Certara, Princeton, NJ) by noncompartmental […]
analysis. […]
CDD-2807 concentrations in mouse brain, liver, lung, and testis. Tissue samples harvested from mice on day 45 of protocol 1 and at 24-hour, day 7, and day 63 of protocol 2 were weighed and snap-frozen in liquid nitrogen. The samples were stored at −80°C before analysis. Twenty-five mg of tissue was homogenized in 150 µL of 50% CH3OH, and 50 µL of homogenate was added to 200 µL of ice-cold CH3OH containing 0.1 µM of agomelatine (internal standard). The mixture was vortexed and centrifuged at 15000 g for 15 min, and supernatants were transferred into sample vials for analysis. CDD-2807 was analyzed by the same method used in the pharmacokinetic study. The concentration of CDD-2807 in the testis and brain was determined by […]
using individual calibration curves established with the corresponding tissue homogenates from untreated mice. The calibration curve was regressed with a weight of 1/x2 with high linearity (r2 […]
Spatial distribution of CDD-2807 in testis. The testis from the mice treated with CDD-2807 were attached to the Leica CM3050 S cryostat (Leica Biosystems, Deer Park, IL) with water and then sectioned at the thickness of 10 μm at −20°C. The sections were attached to electrically conductive glass slides coated with indium tin oxide ([…], 70-100 ohms, Delta Technologies, Loveland, CO). Tissue sections were sprayed with a matrix solution containing 35 mg/mL 2,5-dihydroxybenzoic acid (DHB, Sigma, St. Louis, MO) in 70% aqueous CH3OH with 0.1% trifluoroacetic acid using an HTX TM-Sprayer (HTX Technologies LLC, Carrboro, NC). Sprayer nozzle temperature was set at 70°C, tray temperature at 40°C, nozzle velocity at 1200 mm/min, […]

Data set [3] deals with male mice. The data set can be described thus: Testis size of treated mice. The format is in vivo.

With `O=C(c1ccc2[nH]nc(C#Cc3ccccc3-c3ccccc3)c2c1)N1CC2(CCCNC2)C1` [CDD-2807], the “Metabolic stability MLM, t1/2” value in data set [1] (2.0 µM, 0.5 mg protein/mL, NADPH, data >60 min is an extrapolated estimate) is above 1 h. The “Metabolic stability in MLM” value in data set [1] (Phase I metabolism) was ~ 1 hour; in data set [1] (Phases I and II metabolism) it was ~ 50 minutes. Moreover, the half-life at 2 µM in data set [1] (2.0 µM, 0.5 mg protein/mL, NADPH, data >60 min is an extrapolated estimate, read-out: Metabolic stability MLM, t1/2) is 1.18 h; in data set [1] (NADPH with UDP-GA (2.5 mM), alamethicin, read-out: MLM, t1/2, liver microsomes with glucuronidation), 0.833 h. In data set [2] (C57/129 hybrid, mouse, testis, intraperitoneal, 50 mg/kg/day over 7 days), this compound showed a concentration at 7 day of around 24000 ng/g. The concentration at 45 day in data set [2] (male, C57/129 hybrid, mouse, testis, ip, protocol 1 (15 mg/kg i.p. twice per day), day 45) was found to be 89600 ± 14100 ng/g. The concentration at 63 day in data set [2] (male, C57/129 hybrid, mouse, testis, ip, protocol 2 (50 mg/kg i.p. once per day), day 63) turned out to be 114000 ± 7900 ng/g. Further, the CDD-2807 in brain in data set [2] (protocol 1, day 45, collection 12 hours after dosing) is given as 0.28 ± 0.09 ng of CDD-2807 per milligram of tissue; in data set [2] (protocol 2, day 63, collection 24 hours after dosing), “undetectable”. Further, the CDD-2807 in lung result in data set [2] (protocol 1 and 2 mice) was “low levels”. Moreover, the testis size result in data set [3] (50 mg/kg/day for 7 days (Protocol 3)) is recorded as “did not alter”; in data set [3] (protocol 1 at day 45) it was “normal”; in data set [3] (protocol 2 at 63 days), 87.13 ± 5.87 mg.
